According to patent publication EP4603105A1, “PHARMACEUTICAL COMPOSITION CONTAINING CYCLIC COMPOUND HAVING SELECTIVE KRAS INHIBITORY EFFECT AGAINST HRAS AND NRAS” (CHUGAI SEIYAKU KABUSHIKI KAISHA, priority 2022, dated 2024):
Where a SMILES comes first, the peptide text is derived from it. Bridges are numbered along the chain shown (N, C = ends). [ ]: non-standard residue; d: D form. The star is where a group is joined. hPhe(3-Cl-4-CF3) = N[C@@H](CCc1ccc(C(F)(F)F)c(Cl)c1)C(=O)O; NPrPhe(4-CF3) = CCCN[C@@H](Cc1ccc(C(F)(F)F)cc1)C(=O)O; NMeGly(cPent) = CN[C@H](C(=O)O)C1CCCC1; Pro(4,4-F2) = O=C(O)[C@@H]1CC(F)(F)CN1; NMeD = CN[C@@H](CC(=O)O)C(=O)O; NMeL = CN[C@@H](CC(C)C)C(=O)O; Morpholide = C1CN(*)CCO1; Ac5c = NC1(C(=O)O)CCCC1; Aze = O=C(O)[C@@H]1CCN1; Ac4c = NC1(C(=O)O)CCC1; NEtG = CCNCC(=O)O; Sar = CNCC(=O)O

What was measured:
HRAS wild-type protein = HRAS wild-type protein (Homo sapiens, UniProt P01112); test: Binding to HRAS by surface plasmon resonance (SPR), KD and KD ratio to KRAS
HRAS wild-type protein, sequence (P01112 whole entry): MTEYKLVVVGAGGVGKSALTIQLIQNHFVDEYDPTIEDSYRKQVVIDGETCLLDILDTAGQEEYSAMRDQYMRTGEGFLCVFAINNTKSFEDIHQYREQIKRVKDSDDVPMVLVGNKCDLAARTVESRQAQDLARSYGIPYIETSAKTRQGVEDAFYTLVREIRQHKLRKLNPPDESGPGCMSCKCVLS
Description: (§1) Surface plasmon resonance was used to analyze the binding affinity of compounds for KRAS, NRAS, and HRAS. The apparatus used was Biacore 8K, 8K+, or T200 (GE Healthcare), and the running buffer used was HBS (10 mM HEPES-NaOH, 150 mM NaCl, pH 7.4) containing 1 mM DTT, 10 mM MgCl2, 0.01% Tween 20, 10 µM GDP, and 4% DMSO.
(§2) Biotinylated Avi-tag fusion KRAS, NRAS, and HRAS proteins were expressed in E. coli BL21 (DE3) strains, and after cells were homogenized, they were purified using Streptavidin Mutein Matrix and Superdex 75. After purification, GDP-loaded KRAS, NRAS, and HRAS proteins were immobilized on the surface of Sensor Chip CAP (Cytiva) coated with Biotin CAPture Reagent in an immobilization amount of about 100 to 300 RU. Binding of each compound was evaluated by the Single Cycle Kinetics method, and a running buffer or a compound solution was added to the RAS protein non-immobilized surface and the immobilized surface to obtain a binding response. The flow rate was set to 100 µL/min, and in the compound-adding cycle, compound solutions having different concentrations were intermittently added for 75 seconds each, starting from a low concentration. […] In the blank cycle, a running buffer was intermittently added and not the compound solution. The Biotin CAPture Reagent and RAS proteins were immobilized for each cycle, and at the end of each cycle, the sensor chip was regenerated by the regeneration solution appended to the Biotin CAPture Kit (Cytiva). Measurement was carried out at 30°C.
(§3) The resulting sensorgram was subjected to curve fitting based on a 1:1 binding model on Biacore Insight Evaluation Software or T200 Evaluation Software, and thereby the dissociation constant KD of each compound with respect to KRAS, NRAS, and HRAS was determined. […] Blank indicates a compound from which the KD value with respect to NRAS or HRAS was not obtained.

[1] = test system: human lung cancer strain NCI-H441; format: cell-based
Description: A test compound was dispensed into a U-bottom 384-well plate as 40 nL serially diluted dimethyl sulfoxide solutions using a liquid handler Echo (LABCYTE). […] This cell suspension was dispensed in an amount of 40 µL per well into a plate containing the test compound, and cultured at 37°C in a 5% carbon dioxide gas incubator. Four days later, 20 µL of CellTiter-Glo (registered trademark) (Promega) was added to each well and […] was measured. […]

[2] = target: GDP-bound NRAS wild-type protein (Homo sapiens, UniProt P01111); test: Binding to NRAS by surface plasmon resonance (SPR), KD and KD ratio to KRAS
GDP-bound NRAS wild-type protein, sequence (P01111 whole entry): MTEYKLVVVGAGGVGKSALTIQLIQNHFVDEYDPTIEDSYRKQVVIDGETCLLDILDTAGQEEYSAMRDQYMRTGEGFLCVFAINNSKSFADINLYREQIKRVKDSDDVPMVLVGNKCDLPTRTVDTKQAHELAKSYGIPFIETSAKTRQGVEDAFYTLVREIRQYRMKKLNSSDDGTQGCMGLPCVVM
Description: as §1, §2, §3

[3] = ratio of the KD value with respect to HRAS wild-type protein to the KD value with respect to KRAS
[4] = ratio of the KD value with respect to GDP-bound NRAS wild-type protein to the KD value with respect to KRAS
[5] = ratio of KD for HRAS wild-type protein to KD for KRAS
[6] = ratio of KD for GDP-bound NRAS wild-type protein to KD for KRAS

SMILES | IC50 [1] [nM] | HRAS /KRAS (HRAS wild-type protein; [3]) | NRAS /KRAS [2, 4] | HRAS /KRAS (HRAS wild-type protein; [5]) | NRAS /KRAS [2, 6]
CC[C@H](C)[C@@H]1NC(=O)[C@H](CC(C)C)N(C)C(=O)C[C@@H](C(=O)N2CCOCC2)N(C)C(=O)[C@H](C2CCCC2)N(C)C(=O)C2(CCCC2)NC(=O)[C@@H]2CCCN2C(=O)[C@H](CCc2cc(F)c(C(F)(F)F)c(F)c2)NC(=O)CN(C)C(=O)[C@H](Cc2ccc(C(F)(F)F)cc2)N2CCCC[C@@H](C2=O)N(C)C(=O)CN(CC)C1=O [PP0545] | 14 | B (a compound having 3 or more and less than 10 is denoted as B) | B (a compound having 3 or more and less than 10 is denoted as B) | – | –
CCCN1C(=O)CN(C)C(=O)CN(CC)C(=O)[C@H]([C@@H](C)CC)NC(=O)[C@H](CC(C)C)N(C)C(=O)C[C@@H](C(=O)N2CCOCC2)N(C)C(=O)[C@H](C2CCCC2)N(C)C(=O)C2(CCC2)NC(=O)[C@@H]2CC(F)(F)CN2C(=O)[C@H](CCc2ccc(C(F)(F)F)c(Cl)c2)NC(=O)CN(C)C(=O)[C@@H]1Cc1ccc(C(F)(F)F)cc1 [PP0400] ([NMeL]I[NEtG][Sar][NPrPhe(4-CF3)][Sar][hPhe(3-Cl-4-CF3)][Pro(4,4-F2)][Ac4c][NMeGly(cPent)][NMeD]-Morpholide; lactam N-11) | 7.8 | B (a compound having 3 or more and less than 10 is denoted as B) | B (a compound having 3 or more and less than 10 is denoted as B) | – | –
CCO[C@@H]1C[C@H]2C(=O)NC3(CCC3)C(=O)N(C)[C@@H](C3CCCC3)C(=O)N(CCC3CCCC3)[C@H](C(=O)N(C)C)CC(=O)N(C)[C@@H](CC(C)C)C(=O)N[C@@H]([C@@H](C)CC)C(=O)N(C)CC(=O)N(C)[C@H]3CCCCCN(C3=O)[C@@H](Cc3ccc(F)cc3)C(=O)N(C)CC(=O)N[C@@H](CCc3ccc(C(F)(F)F)c(Cl)c3)C(=O)N2C1 [PP0976] | 1180 | – | – | B (a compound having 3 or more and less than 10 is denoted as B) | B (a compound having 3 or more and less than 10 is denoted as B)
CCCN1C(=O)CN(C)C(=O)CN(C)C(=O)[C@H]([C@@H](C)CC)NC(=O)[C@H](CC(C)C)N(C)C(=O)C[C@@H](C(=O)N2CCOCC2)N(C)C(=O)[C@H](C2CCCC2)N(C)C(=O)C2(CCCC2)NC(=O)[C@@H]2CCN2C(=O)[C@H](CCc2ccc(C(F)(F)F)c(Cl)c2)NC(=O)CN(C)C(=O)[C@@H]1Cc1ccc(C(F)(F)F)cc1 [PP0260] ([NMeL]I[Sar][Sar][NPrPhe(4-CF3)][Sar][hPhe(3-Cl-4-CF3)][Aze][Ac5c][NMeGly(cPent)][NMeD]-Morpholide; lactam N-11) | 16.8 | – | – | C (A compound having a KD ratio of 0.1 or more and less than 3 is denoted as C) | B (a compound having 3 or more and less than 10 is denoted as B)

Continued, in another order:

IC50 [1] [nM] | SMILES | HRAS /KRAS (HRAS wild-type protein; [3]) | NRAS /KRAS [2, 4] | HRAS /KRAS (HRAS wild-type protein; [5]) | NRAS /KRAS [2, 6]
7.5 | CC[C@H](C)[C@@H]1NC(=O)[C@H](CC(C)C)N(C)C(=O)C[C@@H](C(=O)N2CCC2)N(C)C(=O)[C@H](C2CCCC2)N(C)C(=O)C2(CCCC2)NC(=O)[C@@H]2CCCN2C(=O)[C@H](CCc2cc(F)c(C(F)(F)F)c(F)c2)NC(=O)CN(C)C(=O)[C@H](Cc2ccc(C(F)(F)F)cc2)N2CCCC[C@@H](C2=O)N(C)C(=O)CN(C)C1=O [PP0570] | B (a compound having 3 or more and less than 10 is denoted as B) | B (a compound having 3 or more and less than 10 is denoted as B) | – | –
11.2 | CCC[C@H]1C(=O)N[C@@H]([C@@H](C)CC)C(=O)N(C)CC(=O)N(C)[C@H]2C/C=C\CCN(C2=O)[C@@H](Cc2ccc(C(F)(F)F)cc2)C(=O)N(C)CC(=O)N[C@@H](CCc2cc(F)c(C(F)(F)F)c(F)c2)C(=O)N2C[C@H](OCC)C[C@H]2C(=O)NC2(CCC2)C(=O)N(C)[C@@H](C2CCCC2)C(=O)N(C)[C@H](C(=O)N(C)C)CC(=O)N1C [PP1110] | – | – | B (a compound having 3 or more and less than 10 is denoted as B) | A (a compound having 10 or more and less than 20 is denoted as A)
5.4 | CCO[C@@H]1C[C@H]2C(=O)NC3(CCC3)C(=O)N(C)[C@@H](C3CCCC3)C(=O)N(C)[C@H](C(=O)N(C)C)CC(=O)N(C)[C@@H](CC(C)C)C(=O)N[C@@H]([C@@H](C)CC)C(=O)N(C)CC(=O)N(C)[C@H]3C/C=C\CCN(C3=O)[C@@H](Cc3ccc(C(F)(F)F)cc3)C(=O)N(C)CC(=O)N[C@@H](CCc3cc(F)c(C(F)(F)F)c(F)c3)C(=O)N2C1 [PP1107] | – | – | A (a compound having 10 or more and less than 20 is denoted as A) | A (a compound having 10 or more and less than 20 is denoted as A)
